Source: patent publication US11547690B1, “Chemotherapeutic self-nanoemulsifying drug delivery systems and uses thereof” (KING ABDULAZIZ UNIVERSITY, priority 2022, dated 2023)
Values after ≈ are worked out from the molar mass of the structure shown. Read-outs that look alike come from different tables or passages of the source.

Columns and labels:
[1] = cited from earlier work
[2] = Equilibrium solubility evaluation in lipids and cosolvents; assay type: physicochemical; conditions: for solubility at 72 h: 37 °C, thermodynamic from solid, read-out: solubility of PTX
Experimental: Solubility evaluation of PTX was carried out in various oils and cosolvents till attaining equilibrium by addition of excess quantity of drug to 1 gm of each of the excipient in culture vials and mixed well using vortex mixer (Remi Instruments, Mumbai, India). The sealed vials were kept on water bath shaker at 37±0.5° C. for 72 h for 150 strokes per minute. After specified time period, the samples were centrifuged at 3,000 rpm (402.5×g) for 15 minutes using a laboratory centrifuge (Remi Instruments, Mumbai, India). Drug was extracted in acetonitrile and supernatant fraction was filtered through 0.45 μm membrane filter, suitably diluted and analyzed by previously developed HPLC method.

CC(=O)O[C@H]1C(=O)[C@@]2(C)[C@H]([C@H](OC(=O)c3ccccc3)[C@]3(O)C[C@H](OC(=O)[C@H](O)[C@@H](NC(=O)c4ccccc4)c4ccccc4)C(C)=C1C3(C)C)[C@]1(OC(C)=O)CO[C@@H]1C[C@@H]2O [PTX, Paclitaxel]
oral bioavailability [1]: 5%
solubility at 72 h ([2]; aqueous with cosolvent or surfactant or cyclodextrin, in Tween® 80, 37±0.5° C., 72 h): 78 mg/mL (≈ 91.3 mM)
solubility at 72 h ([2]; aqueous with cosolvent or surfactant or cyclodextrin, in surfactin): 106 mg/mL (≈ 124 mM)
solubility at 72 h ([2]; organic solvent or mixture, in Transcutol® HP, 37±0.5° C., 72 h): 235 mg/mL (≈ 275 mM)
solubility of PTX ([2]; in 1:1 ratio mixture of ethyl oleate:Plurol® Oleique, 37±0.5° C., 72 h): 198.5 mg/mL
